Paper PMC10439230 (Scientific Reports, 2023)

What was measured:
[1] = test system: MDA-MB-231 cells; experiment: Cell death analysis, annexin V/7-AAD double staining, flow cytometry; format: cell-based, human; conditions: for mode of cell death: MDA-MB-231 cells, 24–48 h treatment
Protocol: (§1) Mode of cell death induced by compound 4l was explored using MDA-MB-231 cells by observing change in cell morphology and flow cytometric analysis of annexin V/7-AAD double stained cells. […] Accidental cell death necrosis is typically indicated by the immediate production of bubbles on the cell surface after treatment. […] Additionally, vacuole accumulation was not observed in the treated cells until 48 h after treatment (Fig. 3a). Taken together, we hypothesized that 4l-induced cell death in MDA-MB-231 cells was not processed through necrosis or vacuole-presenting regulated cell death such as autophagy.
Briefly, MDA-MB-231 cells were seeded into 6-well culture plates at 1 × 10^6 cells/well and left in a CO2 incubator for 24 h. Subsequently, the cells were treated with tested compounds for 24–48 h. DMSO was used as a vehicle and its final concentration was kept at 0.2% (v/v) throughout the study. The treated cells were harvested by trypsinization and subjected to annexin V/7-AAD double staining using Muse® Annexin V & Dead Cell Kit as previously described. The stained cells were analyzed by flow cytometric technique using Muse® Cell Analyzer. Population of annexin V-positive cells was defined as early apoptotic cells, and the population positive for both annexin V and 7-AAD was defined as late apoptotic cells. The sequential events of increasing early and late apoptotic cell populations over time is a characteristic of apoptotic cell death.

[2] = test system: MRC-5 normal embryonic lung fibroblast cell line; experiment: Cytotoxic activity assay (MTT), normal cells; format: cell-based; conditions: Homo sapiens, MRC5, 48 h exposure, read-out: Cell lines, IC50 (μM) MRC-5
How it was run: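 Seeding: 5000–20,000 cells/well, 24 h at 37 °C, 95% humidity, 5% CO2. Treatment: equal volume of medium with compound, 48 h. Detection: MTT 2.5–4 h, DMSO solubilisation, A550 minus A650.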

[3] = test system: HL-60 (acute promyelocytic leukemia); experiment: Cytotoxic activity assay (XTT); format: cell-based, human; conditions: for IC50: Homo sapiens, HL-60, 48 h exposure, XTT, read-out: Cell lines, IC50 (μM) HL-60; for Selectivity Index (SI) values HL-60: SI = IC50 normal cell (MRC-5)/ IC50 cancer cell
How it was run: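 Cytotoxicity against the suspended leukemia line HL-60 was measured with the XTT method, using doxorubicin and etoposide as positive controls. Cells (5000–20,000 per well, 75 µL) were allowed 30 min at 37 °C with 5% CO2 and were then treated with compound in an equal volume of medium for 48 h. After 4 h with 75 µL XTT reagent, plates were read at 492 nm with a 690 nm reference. MRC-5 normal lung fibroblasts served as the normal-cell comparison.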

[4] = test system: MOLT-3 (T cell acute lymphoblastic leukemia); experiment: Cytotoxic activity assay (XTT); format: cell-based, human; conditions: for IC50: Homo sapiens, MOLT-3, 48 h exposure, XTT, read-out: Cell lines, IC50 (μM) MOLT-3; for Selectivity Index (SI) values MOLT-3: SI = IC50 normal cell (MRC-5)/ IC50 cancer cell
[5] = test system: HepG2 (hepatocellular carcinoma); experiment: Cytotoxic activity assay (MTT); format: cell-based, human; conditions: for IC50: Homo sapiens, HepG2, 48 h exposure, MTT, read-out: Cell lines, IC50 (μM) HepG2; for Selectivity Index (SI) values HepG2: SI = IC50 normal cell (MRC-5)/ IC50 cancer cell
How it was run: (§2)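 Viability after 48 h compound treatment is determined by MTT reduction, with dissolved purple formazan read at 550 nm against a 650 nm reference. Adherent cells are seeded at 5000–20,000 per well and grown 24 h at 37 °C beforehand.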

[6] = test system: T-47D (hormone-dependent breast cancer); experiment: Cytotoxic activity assay (MTT); format: cell-based, human; conditions: for IC50: Homo sapiens, T47D, 48 h exposure, MTT, read-out: Cell lines, IC50 (μM) T47-D; for Selectivity Index (SI) values T47-D: SI = IC50 normal cell (MRC-5)/ IC50 cancer cell
How it was run: as §2

[7] = test system: HeLa (cervical carcinoma); experiment: Cytotoxic activity assay (MTT); format: cell-based, human; conditions: for IC50: Homo sapiens, 48 h exposure, MTT, read-out: Cell lines, IC50 (μM) HeLa; for Selectivity Index (SI) values HeLa: SI = IC50 normal cell (MRC-5)/ IC50 cancer cell
How it was run: as §2

[8] = test system: H69AR (multidrug-resistant small cell lung carcinoma); experiment: Cytotoxic activity assay (MTT); format: cell-based, human; conditions: for IC50: Homo sapiens, H69AR, 48 h exposure, MTT, read-out: Cell lines, IC50 (μM) H69AR; for Selectivity Index (SI) values H69AR: SI = IC50 normal cell (MRC-5)/ IC50 cancer cell
How it was run: as §2

[9] = test system: MDA-MB-231 (triple-negative breast cancer); experiment: Cytotoxic activity assay (MTT); format: cell-based, human; conditions: for IC50: Homo sapiens, MDA-MB-231, 48 h exposure, MTT, read-out: Cell lines, IC50 (μM) MDA-MB-231; for Selectivity Index (SI) values MDA-MB-231: SI = IC50 normal cell (MRC-5)/ IC50 cancer cell
How it was run: as §2

[10] = test system: HuCCA-1 (cholangiocarcinoma derived from a patient); experiment: Cytotoxic activity assay (MTT); format: cell-based, human; conditions: for IC50: Homo sapiens, HuCC-A1, 48 h exposure, MTT, read-out: Cell lines, IC50 (μM) HuCCA-1; for Selectivity Index (SI) values HuCCA-1: SI = IC50 normal cell (MRC-5)/ IC50 cancer cell
How it was run: as §2

[11] = test system: A549 (lung adenocarcinoma); experiment: Cytotoxic activity assay (MTT); format: cell-based, human; conditions: for IC50: Homo sapiens, A549, 48 h exposure, MTT, read-out: Cell lines, IC50 (μM) A549; for Selectivity Index (SI) values A549: SI = IC50 normal cell (MRC-5)/ IC50 cancer cell
How it was run: as §2

[12] = test system: phospho-EGFR (Y845); experiment: Western blot analysis of EGFR phosphorylation; format: cell-based, human; conditions: MDA-MB-231 cells, 25–50 µM, 24 h
Protocol: (§3) We further investigated targets of compound 4l on cell survival signaling pathways including EGFR, FAK, Akt, and ERK in MDA-MB-231 cells. After treatment with 4l at concentrations of 25–50 µM for 24 h, activation (phosphorylation) of the signaling pathways was determined by using western blot analysis.
(§4) MDA-MB-231 cells in 6-well culture plates (1 × 10^6 cells/well) were treated with tested compounds for 24 h. Then the cells were harvested and western blot analysis was used to detect alteration of targeted proteins in the treated cells, as previously described. Briefly, the cells in 6-well culture plates were scraped in RIPA cell lysis buffer supplemented with protease/phosphatase inhibitor cocktail before being lysed by sonication. Cell lysates were centrifuged at 12,000×g for 5 min, at 4 °C, to remove cell debris. Total proteins (20 μg) in the cell lysates were separated by SDS-PAGE and blotted to PVDF membranes. The membranes were blocked with 3% (w/v) BSA and incubated overnight at 4 °C with primary antibodies specific to the following proteins: EGFR, phospho-EGFR (Y845), FAK, phospho-FAK (Y397), Akt, phospho-Akt (S473), ERK, and phospho-ERK (T202/Y204). […] Bands of specific proteins were detected by using SuperSignal™ ECL substrates and visualized on X-ray films.

[13] = test system: phospho-ERK (T202/Y204); experiment: Western blot analysis of ERK phosphorylation; format: cell-based, human; conditions: MDA-MB-231 cells, 25–50 µM, 24 h
Protocol: as §3, §4

[14] = test system: phospho-FAK (Y397); experiment: Western blot analysis of FAK phosphorylation; format: cell-based, human; conditions: MDA-MB-231 cells, 24 h
Protocol: as §3, §4

[15] = test system: phospho-Akt (S473); experiment: Western blot analysis of Akt phosphorylation; format: cell-based, human; conditions: MDA-MB-231 cells, 25–50 µM, 24 h
Protocol: as §3, §4

[16] = test system: MDA-MB-231 cells; experiment: Cell morphology of treated cells (microscopy); format: cell-based, human; conditions: MDA-MB-231, 25–50 µM
Protocol: as §1

Row | Structure (SMILES) | mode of cell death [1] | IC50 [2] | IC50 [3] | Selectivity Index (SI) values HL-60 [3] | IC50 [4] | Selectivity Index (SI) values MOLT-3 [4] | IC50 [5] | Selectivity Index (SI) values HepG2 [5] | IC50 [6] | Selectivity Index (SI) values T47-D [6] | IC50 [7] | Selectivity Index (SI) values HeLa [7] | IC50 [8] | Selectivity Index (SI) values H69AR [8] | IC50 [9] | Selectivity Index (SI) values MDA-MB-231 [9] | IC50 [10] | Selectivity Index (SI) values HuCCA-1 [10] | IC50 [11] | Selectivity Index (SI) values A549 [11] | other results
1 | C=C1CC[C@H]2C(C)(C)CCC[C@]2(C)[C@H]1CC/C(C)=C/C(=O)NOC1CCCCO1 (stereo partly drawn) [Compound 4l, (E)-3-Methyl-N-((tetrahydro-2H-pyran-2-yl)oxy)-5-((1S,4aS,8aS)-5,5,8a-trimethyl-2-methylenedecahydronaphthalen-1-yl)pent-2-enamide] | non-apoptotic regulated cell death | 40.3 ± 2.11 µM | 21.4 ± 0.31 µM | 1.9 | 26.2 ± 1.76 µM | 1.5 | 73.5 ± 2.15 µM | 0.5 | 66.1 ± 6.39 µM | 0.6 | 26.44 ± 0.04 µM | 1.5 | 94.6 ± 1.67 µM | 0.4 | 13.73 ± 0.04 µM | 2.9 | 58.67 ± 0.13 µM | 0.7 | 57.7 ± 1.2 µM | 0.7 | late apoptotic cell population ([1]; MDA-MB-231, 25–50 µM, 48 h, control 5.8%, mean of three experiments (Fig. 3c)): 19.0–26.3%; phosphorylation of EGFR [12]: not affected; phosphorylation of ERK [13]: not affected; phosphorylation of FAK protein ([14]; 25–50 µM): selectively reduced; phosphorylation of Akt [15]: not affected; necrosis (immediate formation of bubbles on cell surface) ([16]; 24–48 h): did not induce necrosis; vacuole accumulation ([16]; until 48 h after treatment): not observed
2 | C=C1CC[C@H]2C(C)(C)CCC[C@]2(C)[C@H]1CC/C(C)=C/C(=O)N(C)O [Compound 4p, (E)-N-Hydroxy-N,3-dimethyl-5-((1S,4aS,8aS)-5,5,8a-trimethyl-2-methylenedecahydronaphthalen-1-yl)pent-2-enamide] |  | 69.8 ± 1.24 µM | 6.81 ± 1.99 µM | 10.2 | 3.72 ± 0.26 µM | 18.8 | 64.6 ± 0.76 µM | 1.1 | 35.7 ± 1.01 µM | 2.0 | 33.6 ± 0.54 µM | 2.1 | 96.67 ± 0.08 µM | 0.7 | 24.5 ± 0.61 µM | 2.8 | 58.6 ± 1.2 µM | 1.2 | 61.4 ± 2.16 µM | 1.1 | 
3 | C=C1CC[C@H]2C(C)(C)CCC[C@]2(C)[C@H]1CC/C(C)=C/C(=O)NCC(=O)OC [Compound 4q, Methyl ((E)-3-methyl-5-((1S,4aS,8aS)-5,5,8a-trimethyl-2-methylenedeca-hydronaphthalen-1-yl)pent-2-enoyl)glycinate] |  | 65.29 ± 0.11 µM | 26 ± 0.55 µM | 2.5 | 14.9 ± 0.32 µM | 4.4 | 73.89 ± 0.3 µM | 0.9 | 71.3 ± 2.07 µM | 0.9 | 39.1 ± 0.78 µM | 1.7 | 61.4 ± 2.03 µM | 1.1 | 46.2 ± 1.89 µM | 1.4 | 81.1 ± 2.42 µM | 0.8 | 43.8 ± 3.08 µM | 1.5 | 
4 | C=C1CCC2C(C)(C)CCCC2(C)C1CCC(C)=CC(=O)NCC(=O)OCC [Compound 4r, Ethyl ((E)-3-methyl-5-((1S,4aS,8aS)-5,5,8a-trimethyl-2-methylenedec-ahydronaphthalen-1-yl)pent-2-enoyl)glycinate] |  | 63.9 ± 0.65 µM | 23.9 ± 0.59 µM | 2.7 | 11.5 ± 1.13 µM | 5.6 | 61.3 ± 1.12 µM | 1.0 | 87.2 ± 6.02 µM | 0.7 | 36.6 ± 1.44 µM | 1.7 | 45.9 ± 1.8 µM | 1.4 | 23.4 ± 0.81 µM | 2.7 | 72.3 ± 1.93 µM | 0.9 | 67.3 ± 2.09 µM | 0.9 | 
5 | Cl.Cl.Cl.Cl.Nc1cc(N)c(N)cc1N [FAKi, 1,2,4,5-benzenetetraamine tetrahydrochloride, reference compound] | non-apoptotic cell death |  |  |  |  |  |  |  |  |  |  |  |  |  |  |  |  |  |  |  | FAK phosphorylation ([14]; 16 μM): clearly inhibited
